Starred links: 1 amine or outer side, 2 acyl side, 3 side chain; linkers in the order of their positions; H or OH if unused. Positions of bridges follow the written chain, without caps; N, C: chain ends. Non-standard residues stand in square brackets, D forms with d. Residues, ends and D or L forms follow the SMILES beside them. Groups on a side chain read outwards from the residue. *: point of attachment. γGlu = O=C(O)[C@H](CCC(=O)[*:2])N[*:1]; Palmitoyl = CCCCCCCCCCCCCCCC(=O)*; X5 = O=C(O)CCCCCCCCCCCC(=O)*; AEEA = NCCOCCOCC(=O)O

This data set is described as follows: in vivo. On the set-up: species or system Sprague-Dawley rats. The note with it: rat, iv, 0.033 mg/kg. How it is done:
Peptides were dissolved in sterile saline and administered as a 1-hour intravenous infusion to non-fasted male Sprague-Dawley rats (n=3 per group) via femoral vein cannula at a final dose of 0.033 mg/kg. […] Blood samples (approximately 250 μL) were collected for pharmacokinetic analysis via a jugular vein cannula at 0.25, 0.5, 0.75, 1, 1.17, 1.33, 1.5, 2, 4, 6, 8, 24, 30 and 48 hr post-start of infusion into microtainer tubes containing K2EDTA as anticoagulant and 25 μL of a protease inhibitor cocktail. Plasma was prepared by centrifugation and stored at −80° C. until analysis. The results of this analysis are shown in Table 9 and few exemplars in FIGS. 3a-3b. […]
A 60 μL aliquot of each plasma sample was placed into to a 96-well plate. To each well was added 6 μL of 0.5% Tween-20. Plates were then vortexed mixed for 10 minutes at 1200 rpm before 180 μL of 0.1% TFA in 2:1 ethanol:acetonitrile containing an appropriate internal standard was added to each well. Plates were vortex mixed for 5 min at 1300 rpm, and then centrifuged for 10 min at 2844×g. Supernatants (180 μL) were placed into a clean 96-well plate and evaporated under a nitrogen stream at 45° C. Residues were reconstituted in 80 μL of 20% acetonitrile (aq) containing 0.1% formic acid.
A […] aliquot of each plasma sample was diluted with […] of 10 mM ammonium acetate (pH 6.8) containing an appropriate internal standard and loaded onto an Oasis WCX microElution plate (Waters Corporation, Milford, MA) that had been pre-conditioned with […] of methanol and […] of deionized water. Samples were washed with […] of 5% ammonium hydroxide (aq) followed by […] of 20% acetonitrile in water. The analyte was eluted with […] of 5% formic acid in 75:25 acetonitrile:water. The eluent was dried under a nitrogen stream. Residues were reconstituted in 80 μL of 20% acetonitrile (aq) containing 0.1% formic acid.
All calibration standards were prepared in control rat plasma containing K2EDTA and protease inhibitor cocktail.
Samples and standards were analyzed by TurbolonSpray™ UPLC-MS/MS using a system consisting of a CTC HTS PAL auto-injector (Leap, Carrboro, NC), an Agilent Infinity 1290 system with column oven (Palo Alto, CA), a Valco switching valve (Houston, TX), and either an AB Sciex API 5600 TripleTOF™ or Sciex API 4000QTrap mass spectrometer (Framingham, MA). Samples were injected onto a 2.1×50 mm reverse phase C18 analytical column, typically a Waters CORTECS UPLC C18+, 1.6 μm (Waters Corporation, Milford, MA) or similar. […] Initial conditions consisted of 90% A and 10% B. The organic component was increased to 95% B over a period of 3-4 minutes, depending on the peptide. Typical flow rates were 600 μL/min. The column temperature was held constant at 40 or 50° C. Peptides were quantified by monitoring one or more product ions produced from a multiply charged parent ion.
In the case of `CCCCCCCCCCCCCCCC(=O)N[C@@H](CCC(=O)N[C@@H](CCC(=O)N[C@@H](CCC(=O)N[C@@H](CCC(=O)NCCCC[C@H](NC(=O)[C@H](CCC(=O)O)NC(=O)[C@H](CC(N)=O)NC(=O)[C@H](C)NC(=O)[C@H](CC(C)C)NC(=O)[C@H](CCCNC(=N)N)NC(=O)[C@H](CCC(N)=O)NC(=O)[C@@H](NC(=O)[C@H](C)NC(=O)[C@@H]1CSSC[C@H](NC(=O)[C@@H](N)CO)C(=O)N[C@@H](CC(N)=O)C(=O)N[C@@H]([C@@H](C)O)C(=O)N[C@@H](CO)C(=O)N[C@@H]([C@@H](C)O)C(=O)N1)[C@@H](C)O)C(=O)N[C@@H](Cc1c[nH]cn1)C(=O)N[C@@H](CCCCN)C(=O)N[C@@H](CO)C(=O)N[C@@H](CO)C(=O)N[C@@H](CC(N)=O)C(=O)N[C@@H](CC(N)=O)C(=O)N[C@@H](Cc1ccccc1)C(=O)NCC(=O)N1CCC[C@H]1C(=O)N[C@H](C(=O)N[C@@H](CC(C)C)C(=O)N1CCC[C@H]1C(=O)N1CCC[C@H]1C(=O)N[C@H](C(=O)N[C@@H](CCCCN)C(=O)N[C@H](C(=O)NCC(=O)N[C@@H](CO)C(=O)N[C@@H](CCC(=O)O)C(=O)N[C@H](C(=O)N[C@@H](Cc1ccc(O)cc1)C(N)=O)[C@@H](C)O)C(C)C)[C@@H](C)O)[C@@H](C)CC)C(=O)O)C(=O)O)C(=O)O)C(=O)O` [Compound A21] (H-SCNTSTCATQRLANEK([γGlu-γGlu-γGlu-γGlu-Palmitoyl])HKSSNNFGPILPPTKVGSETY-NH2; disulfide 2-7), the Vd (usually the apparent volume that relates the amount in the body to the concentration in plasma or blood) came to 0.131 L/kg, the clearance (usually the volume of plasma or blood freed of the substance per unit of time) was found to be 0.178 mL/min/kg and the half-life (usually how long it takes for the measured level to halve) was 10.4 h.
`CCCCCCCCCCCCCCCC(=O)N[C@@H](CCC(=O)NCCOCCOCC(=O)NCCOCCOCC(=O)N[C@@H](CCC(=O)NCCCC[C@@H](NC(=O)[C@H](CCC(=O)O)NC(=O)[C@H](CC(N)=O)NC(=O)[C@H](C)NC(=O)[C@H](CC(C)C)NC(=O)[C@H](CCCNC(=N)N)NC(=O)[C@H](CCC(N)=O)NC(=O)[C@@H](NC(=O)[C@H](C)NC(=O)[C@@H]1CSSC[C@H](NC(=O)[C@@H](N)CO)C(=O)N[C@@H](CC(N)=O)C(=O)N[C@@H]([C@@H](C)O)C(=O)N[C@@H](CO)C(=O)N[C@@H]([C@@H](C)O)C(=O)N1)[C@@H](C)O)C(=O)N[C@@H](Cc1c[nH]cn1)C(=O)N[C@@H](CCCCN)C(=O)N[C@@H](CO)C(=O)N[C@@H](CO)C(=O)N[C@@H](CC(N)=O)C(=O)N[C@@H](CC(N)=O)C(=O)N[C@@H](Cc1ccccc1)C(=O)NCC(=O)N1CCC[C@H]1C(=O)N[C@H](C(=O)N[C@@H](CC(C)C)C(=O)N1CCC[C@H]1C(=O)N1CCC[C@H]1C(=O)N[C@H](C(=O)N[C@@H](CCCCN)C(=O)N[C@H](C(=O)NCC(=O)N[C@@H](CO)C(=O)N[C@@H](CCC(=O)O)C(=O)N[C@H](C(=O)N[C@@H](Cc1ccc(O)cc1)C(N)=O)[C@@H](C)O)C(C)C)[C@@H](C)O)[C@@H](C)CC)C(=O)O)C(=O)O` [Compound A25] (H-SCNTSTCATQRLANE[dK]([γGlu-AEEA-AEEA-γGlu-Palmitoyl])HKSSNNFGPILPPTKVGSETY-NH2; disulfide 2-7; N-terminus assumed) gave a Vd of 0.249 L/kg, a clearance of 0.788 mL/min/kg and a half-life of 4.97 h.
The like results for `CCCCCCCCCCCCCCCC(=O)N[C@@H](CCC(=O)N[C@@H](CCC(=O)NCCCC[C@@H](NC(=O)[C@H](CCC(=O)O)NC(=O)[C@H](CCC(N)=O)NC(=O)[C@H](C)NC(=O)[C@H](CC(C)C)NC(=O)[C@H](CCCNC(=N)N)NC(=O)[C@H](CCC(N)=O)NC(=O)[C@@H](NC(=O)[C@H](C)NC(=O)[C@@H]1CSSC[C@H](NC(=O)[C@@H](N)CO)C(=O)N[C@@H](CC(N)=O)C(=O)N[C@@H]([C@@H](C)O)C(=O)N[C@@H](CO)C(=O)N[C@@H]([C@@H](C)O)C(=O)N1)[C@@H](C)O)C(=O)N[C@@H](Cc1c[nH]cn1)C(=O)N[C@@H](CCCCN)C(=O)N[C@@H](CO)C(=O)N[C@@H](CO)C(=O)N[C@@H](CC(N)=O)C(=O)N[C@@H](CC(N)=O)C(=O)N[C@@H](Cc1ccccc1)C(=O)NCC(=O)N1CCC[C@H]1C(=O)N[C@H](C(=O)N[C@@H](CC(C)C)C(=O)N1CCC[C@H]1C(=O)N1CCC[C@H]1C(=O)N[C@H](C(=O)N[C@@H](CCCCN)C(=O)N[C@H](C(=O)NCC(=O)N[C@@H](CO)C(=O)N[C@@H](CCC(=O)O)C(=O)N[C@H](C(=O)N[C@@H](Cc1ccc(O)cc1)C(N)=O)[C@@H](C)O)C(C)C)[C@@H](C)O)[C@@H](C)CC)C(=O)O)C(=O)O` [Compound A28] (H-SCNTSTCATQRLAQE[dK]([γGlu-γGlu-Palmitoyl])HKSSNNFGPILPPTKVGSETY-NH2; disulfide 2-7) were, in that order, 0.17 L/kg, 0.485 mL/min/kg and 5.41 h.
`CC[C@H](C)[C@H](NC(=O)[C@@H]1CCCN1C(=O)CNC(=O)[C@H](Cc1ccccc1)NC(=O)[C@H](CC(N)=O)NC(=O)[C@H](CC(N)=O)NC(=O)[C@H](CO)NC(=O)[C@H](CO)NC(=O)[C@H](CCCCN)NC(=O)[C@H](Cc1c[nH]cn1)NC(=O)[C@H](CC(C)C)NC(=O)[C@H](CCCCNC(=O)CCCCCCCCCCCC(=O)O)NC(=O)[C@H](CC(N)=O)NC(=O)[C@H](C)NC(=O)[C@H](CC(C)C)NC(=O)[C@H](CCCNC(=N)N)NC(=O)[C@H](CCC(N)=O)NC(=O)[C@@H](NC(=O)[C@H](C)NC(=O)[C@@H]1CSSC[C@H](NC(=O)[C@@H](N)CO)C(=O)N[C@@H](CC(N)=O)C(=O)N[C@@H]([C@@H](C)O)C(=O)N[C@@H](CO)C(=O)N[C@@H]([C@@H](C)O)C(=O)N1)[C@@H](C)O)C(=O)N[C@@H](CC(C)C)C(=O)N1CCC[C@H]1C(=O)N1CCC[C@H]1C(=O)N[C@H](C(=O)N[C@@H](CCCCN)C(=O)N[C@H](C(=O)NCC(=O)N[C@@H](CO)C(=O)N[C@@H](CCC(=O)O)C(=O)N[C@H](C(=O)N[C@@H](Cc1ccc(O)cc1)C(N)=O)[C@@H](C)O)C(C)C)[C@@H](C)O` [Compound A31] (H-SCNTSTCATQRLANK(X5)LHKSSNNFGPILPPTKVGSETY-NH2; disulfide 2-7): the Vd was 0.57 L/kg, the clearance was 18.9 mL/min/kg and the half-life is 0.404 h.
`CCCCCCCCCCCCCCCC(=O)N[C@@H](CCC(=O)NCCCC[C@@H](NC(=O)[C@H](CCC(=O)O)NC(=O)[C@H](CC(N)=O)NC(=O)[C@H](C)NC(=O)[C@H](CC(C)C)NC(=O)[C@H](CCCNC(=N)N)NC(=O)[C@H](CCC(N)=O)NC(=O)[C@@H](NC(=O)[C@H](C)NC(=O)[C@@H]1CSSC[C@H](NC(=O)[C@@H](N)CO)C(=O)N[C@@H](CC(N)=O)C(=O)N[C@@H]([C@@H](C)O)C(=O)N[C@@H](CO)C(=O)N[C@@H]([C@@H](C)O)C(=O)N1)[C@@H](C)O)C(=O)N[C@@H](Cc1c[nH]cn1)C(=O)N[C@@H](CCCCN)C(=O)N[C@@H](CO)C(=O)N[C@@H](CO)C(=O)N[C@@H](CC(N)=O)C(=O)N[C@@H](CC(N)=O)C(=O)N[C@@H](Cc1ccccc1)C(=O)NCC(=O)N1CCC[C@H]1C(=O)N[C@H](C(=O)N[C@@H](CC(C)C)C(=O)N1CCC[C@H]1C(=O)N1CCC[C@H]1C(=O)N[C@H](C(=O)N[C@@H](CCCCN)C(=O)N[C@H](C(=O)NCC(=O)N[C@@H](CO)C(=O)N[C@@H](CCC(=O)O)C(=O)N[C@H](C(=O)N[C@@H](Cc1ccc(O)cc1)C(N)=O)[C@@H](C)O)C(C)C)[C@@H](C)O)[C@@H](C)CC)C(=O)O` [Compound A36] (H-SCNTSTCATQRLANE[dK]([γGlu-Palmitoyl])HKSSNNFGPILPPTKVGSETY-NH2; disulfide 2-7) showed a Vd of 0.244 L/kg, a clearance of 3.93 mL/min/kg and a half-life of 1.32 h.
